Reference: US9650616B2, “Methods for increasing grain yield” (University of Florida Research Foundation, Inc., priority 2014, dated 2017)
Residue numbers refer to the chain shown, from its start. Like-named read-outs stand apart in the source and are kept apart here.

Assays:
[1] = molecular target: T1, maize endosperm AGPase, large subunit variant GG (Q96G, D161G; numbering of SEQ ID NO: 20) (Zea mays, UniProt P55241+Q84PF5, D161G/Q96G); experiment: Apparent kinetic constants with 3-PGA, 37° C., GG; type: biochemical; details: read-out: ATP Km
T1 sequence (P55241 46-516 D161G/Q96G): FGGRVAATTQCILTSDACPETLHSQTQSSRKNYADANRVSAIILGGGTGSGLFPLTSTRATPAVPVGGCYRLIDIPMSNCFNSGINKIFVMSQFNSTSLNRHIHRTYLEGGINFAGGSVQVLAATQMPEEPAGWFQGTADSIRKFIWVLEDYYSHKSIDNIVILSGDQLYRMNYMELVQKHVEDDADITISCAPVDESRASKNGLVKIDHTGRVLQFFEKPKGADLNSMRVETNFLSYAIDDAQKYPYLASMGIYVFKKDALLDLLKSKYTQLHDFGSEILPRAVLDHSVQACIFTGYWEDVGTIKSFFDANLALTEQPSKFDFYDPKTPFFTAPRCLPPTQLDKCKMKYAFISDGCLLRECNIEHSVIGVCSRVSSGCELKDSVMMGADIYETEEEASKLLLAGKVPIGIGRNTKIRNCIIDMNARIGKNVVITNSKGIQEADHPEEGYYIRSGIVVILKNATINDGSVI
T1 sequence (Q84PF5 1-474): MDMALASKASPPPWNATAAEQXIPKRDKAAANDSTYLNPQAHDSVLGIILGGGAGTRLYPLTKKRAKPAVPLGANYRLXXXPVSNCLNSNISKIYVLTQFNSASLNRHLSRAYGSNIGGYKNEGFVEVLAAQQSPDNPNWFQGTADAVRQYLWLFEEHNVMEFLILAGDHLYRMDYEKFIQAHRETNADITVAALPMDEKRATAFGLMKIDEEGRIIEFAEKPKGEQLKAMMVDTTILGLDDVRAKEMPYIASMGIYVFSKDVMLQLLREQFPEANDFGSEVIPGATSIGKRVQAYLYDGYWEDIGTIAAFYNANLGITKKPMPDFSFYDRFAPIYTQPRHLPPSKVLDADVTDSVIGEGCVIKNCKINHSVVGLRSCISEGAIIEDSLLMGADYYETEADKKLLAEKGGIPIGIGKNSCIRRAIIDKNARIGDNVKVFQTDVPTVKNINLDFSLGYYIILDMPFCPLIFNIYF
Text: (§1) The small and large subunit plasmids of maize endosperm AGPase (pMONcBt2 and pMONcSh2, respectively) (Giroux et al., 1996) were expressed in E. coli AC70R1-504 cells (Iglesias et al., 1993) as previously described (Boehlein et al., 2008).
(§2) An endpoint assay was used to determine the rate of the AGPase reaction by coupling the formation of PPi to a decrease in NADH concentration (Boehlein et al., 2008). […] The Michaelis constants (Km) were obtained by varying one substrate in the presence of saturating concentrations of the second substrate. The activation constants were obtained by varying the activator at fixed levels of both substrates. All reactions were performed at 37° C. and mixes were prewarmed before starting the reaction with enzyme. […] The absorbance at 340 nm was monitored after 30 min and the amount of PPi produced was determined from a standard curve using PPi in complete reaction mixtures lacking AGPase. Blank samples contained complete reaction mixtures without enzyme and the change in absorbance between the blank and the reaction was used to calculate the amount of PPi produced. […]
(§3) The apparent Michaelis constant and maximum velocity of each reaction was calculated from a V vs. S plots using nonlinear regression analysis and the following equation, v=VmaxS/(Km+S), where v is the measured velocity, Vmax is the maximum velocity, S is the substrate concentration. […]

[2] = molecular target: T2, maize endosperm AGPase, large subunit variant GGRA (Q96G, D161G, A443R, Q289A; numbering of SEQ ID NO: 20) (Zea mays, UniProt P55241+Q84PF5, A443R/D161G/Q289A/Q96G); experiment: Apparent kinetic constants with 3-PGA, 37° C., GGRA; type: biochemical; details: read-out: ATP Km
T2 sequence (P55241 46-516 A443R/D161G/Q289A/Q96G): T1 sequence (P55241 46-516 D161G/Q96G) with Q244A, A398R
T2 sequence (Q84PF5 1-474): T1 sequence (Q84PF5 1-474)
Text: as §1, §2, §3

[3] = molecular target: T3, maize endosperm AGPase, evolutionary mutant SH2-E (Zea mays, UniProt P55241+Q84PF5); experiment: Apparent kinetic constants with 3-PGA, 37° C., SH2-E; type: biochemical; details: read-out: ATP Km
T3 construct: data of Boehlein et al., 2013
Protocol: as §2, §3
Each mutant, comprising 1, 2, 3 or 4 changes, was grown in a large scale culture, expressed and purified according to standard procedures (Boehlein et al., 2005). […] Next, the activation constant, Ka, was determined for each of the mutant enzymes. […]

[4] = molecular target: T3, maize endosperm AGPase, evolutionary mutant SH2-E; details: cited from earlier work

T3 sequence (P55241 46-516, change not shown, one chain of several): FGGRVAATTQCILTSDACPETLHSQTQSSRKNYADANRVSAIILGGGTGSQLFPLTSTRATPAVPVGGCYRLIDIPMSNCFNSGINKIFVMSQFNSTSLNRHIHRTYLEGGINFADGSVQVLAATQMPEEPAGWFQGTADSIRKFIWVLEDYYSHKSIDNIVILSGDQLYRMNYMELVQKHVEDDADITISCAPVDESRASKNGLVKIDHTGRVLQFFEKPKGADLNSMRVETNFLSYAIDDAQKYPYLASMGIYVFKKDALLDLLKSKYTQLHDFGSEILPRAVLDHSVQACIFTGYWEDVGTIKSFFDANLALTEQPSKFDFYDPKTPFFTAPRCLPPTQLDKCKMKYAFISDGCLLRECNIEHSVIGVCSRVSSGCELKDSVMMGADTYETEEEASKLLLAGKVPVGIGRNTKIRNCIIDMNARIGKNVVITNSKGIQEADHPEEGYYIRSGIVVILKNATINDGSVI

## Nc1ncnc2c1ncn2[C@@H]1O[C@H](COP(=O)(O)OP(=O)(O)OP(=O)(O)O)[C@@H](O)[C@H]1O [ATP]
[1]
  Km: 31 µM
[2]
  Km: 57 µM
[3]
  Km: 100 µM
[4]; absence of 3-PGA
  kcat: 67.6 s⁻¹
[4]; read-out: ATP Km, absence of 3-PGA
  Km: 2530 µM
[4]; read-out: Kia (dissociation constant for the E-ATP complex), absence of 3-PGA
  Kd: 5.4 mM
